Measurements taken from patent EP2168965A1, “Substituted imidazopyridine, imidazopyrazine, imidazopyridazine and imidazopyrimidine derivatives as melanocortin-4 receptor antagonists” (Santhera Pharmaceuticals (Schweiz) AG, priority 2008, dated 2010).
pIC50: −log10 of the molar value. Where two headings read alike, the source gives them in different places.

Legend:
hMC-4R [1] = target: T1, hMC-4R (Homo sapiens, UniProt P32245); experiment: Functional assay: membrane based cAMP fluorescence polarization assay for agonistic activity; type: biochemical; details: read-out: % activation functional assay
T1 construct: expressed in transfected cells; host or cells: HEK293 cells (membrane preparations)

hMC-4R [2] = target: T1, hMC-4R; experiment: Membrane binding assay: competition with fluorescence labeled NDP-alpha-MSH, fluorescence polarization
Experimental: A membrane binding assay is used to identify competitive inhibitors of fluorescence labeled NDP-alpha-MSH binding to HEK293 cell membrane preparations expressing human melanocortin receptors.
The test compound or unlabeled NDP-alpha-MSH is dispensed at varying concentrations to a 384 well microtiter plate. Fluorescence labeled NDP-alpha-MSH is dispensed at a single concentration, followed by addition of membrane preparations. The plate is incubated for 5 h at room temperature.
The degree of fluorescence polarization is determined with a fluorescence polarization microplate reader.

[3] = HEK293 cell membrane preparations expressing human melanocortin receptors, 5 h at room temperature, read-out: hMC-4R binding assay IC50

T1 sequence (P32245 whole entry): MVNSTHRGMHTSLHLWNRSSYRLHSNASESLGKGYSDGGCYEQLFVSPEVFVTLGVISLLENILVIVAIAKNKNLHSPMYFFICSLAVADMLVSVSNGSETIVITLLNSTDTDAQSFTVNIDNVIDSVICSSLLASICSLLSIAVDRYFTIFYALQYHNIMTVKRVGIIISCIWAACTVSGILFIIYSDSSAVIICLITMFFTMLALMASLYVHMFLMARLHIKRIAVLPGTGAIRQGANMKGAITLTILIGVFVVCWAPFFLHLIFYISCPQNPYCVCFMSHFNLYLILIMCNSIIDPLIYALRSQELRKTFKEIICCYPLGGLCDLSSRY

| Compound | Emax (hMC-4R [1]) [%] | pIC50 (hMC-4R [2]) | pIC50 (hMC-4R [2]; [3]) |
| --- | --- | --- | --- |
| CCOC(=O)c1nc2ccc(C(=O)N(CCC(C)C)CCC(C)C)cn2c1C#CCN1CCCC1 [Example 1] | 0 | 6.00 to 7.00 | – |
| CC(C)CCN(CCC(C)C)C(=O)c1ccc2ncc(C#CCN3CCCC3)n2c1 [Example 2] | 0 | – | 6.00 to 7.00 |
| CC(C)CCN(CCC(C)C)C(=O)c1ccc2nc(-c3ccccc3)c(C#CCN3CCCC3)n2c1 [Example 3] | 0 | – | < 6.00 |
| CC(C)CCN(CCC(C)C)C(=O)c1ccc2nc(C#Cc3ccccc3)c(C#CCN3CCCC3)n2c1 [Example 4] | 5 | – | 6.00 to 7.00 |
| CC(C)CCN(CCC(C)C)C(=O)c1ccc2nc(-c3cnco3)c(C#CCN3CCCC3)n2c1 [Example 5] | 0 | – | > 7.00 |
| CC(C)CCN(CCC(C)C)C(=O)c1ccc2nc(C#N)c(C#CCN3CCCC3)n2c1 [Example 6] | 6 | < 6.00 | – |
| CC(C)CCN(CCC(C)C)C(=O)c1ccc2nc(-c3ccoc3)c(C#CCN3CCCC3)n2c1 [Example 7] | 3 | – | 6.00 to 7.00 |
| CC(C)CCN(CCC(C)C)C(=O)c1ccc2nc(-c3ccco3)c(C#CCN3CCCC3)n2c1 [Example 8] | 5 | – | 6.00 to 7.00 |
| CC(C)CCN(CCC(C)C)C(=O)c1ccc2nc(Nc3ncccn3)c(C#CCN3CCCC3)n2c1 [Example 9] | -12 | – | 6.00 to 7.00 |
| CC(C)CCN(CCC(C)C)C(=O)c1ccc2nc(N3CCOCC3)c(C#CCN3CCCC3)n2c1 [Example 10] | 0 | – | 6.00 to 7.00 |
| CC(C)CCN(CCC(C)C)C(=O)c1ccc2nc(Nc3ccccn3)c(C#CCN3CCCC3)n2c1 [Example 11] | -7 | – | > 7.00 |
| COc1cccc(Nc2nc3ccc(C(=O)N(CCC(C)C)CCC(C)C)cn3c2C#CCN2CCCC2)c1 [Example 12] | -3 | – | > 7.00 |
| CC(C)CCN(CCC(C)C)C(=O)c1ccc2nc(N(C)c3ccccn3)c(C#CCN3CCCC3)n2c1 [Example 13] | -4 | – | 6.00 to 7.00 |
| COc1cccc(N(C)c2nc3ccc(C(=O)N(CCC(C)C)CCC(C)C)cn3c2C#CCN2CCCC2)c1 [Example 14] | 0 | – | 6.00 to 7.00 |
| CC(C)CCN(CCC(C)C)C(=O)c1ccc2nc(-c3cnn(CC4OCCO4)c3)c(C#CCN3CCCC3)n2c1 [Example 15] | -4 | – | > 7.00 |
| CC(C)CCN(CCC(C)C)C(=O)c1ccc2nc(C3=CCN(C(=O)OC(C)(C)C)CC3)c(C#CCN3CCCC3)n2c1 [Example 16] | -11 | – | < 6.00 |
| CC(C)CCN(CCC(C)C)C(=O)c1ccc2nc(-c3cn[nH]c3)c(C#CCN3CCCC3)n2c1 [Example 17] | -6 | – | > 7.00 |
| COc1cc(Nc2nc3ccc(C(=O)N(CCC(C)C)CCC(C)C)cn3c2C#CCN2CCCC2)ccc1F [Example 18] | -5 | – | > 7.00 |

| Compound | Emax (hMC-4R [1]) [%] | pIC50 (hMC-4R [2]) | pIC50 (hMC-4R [2]; [3]) |
| --- | --- | --- | --- |
| COc1cc(Nc2nc3ccc(C(=O)N(CCC(C)C)CCC(C)C)cn3c2C#CCN2CCCC2)ccn1 [Example 19] | -13 | – | > 7.00 |
| COc1ccc(Nc2nc3ccc(C(=O)N(CCC(C)C)CCC(C)C)cn3c2C#CCN2CCCC2)cn1 [Example 20] | -16 | – | > 7.00 |
| CC(C)CCN(CCC(C)C)C(=O)c1ccc2nc(-c3ccc4nccn4c3)c(C#CCN3CCCC3)n2c1 [Example 21] | -12 | – | > 7.00 |
| CC(C)CCN(CCC(C)C)C(=O)c1ccc2nc(-c3ccc(F)c(F)c3)c(C#CCN3CCCC3)n2c1 [Example 22] | 0 | – | 6.00 to 7.00 |
| COc1ncc(-c2nc3ccc(C(=O)N(CCC(C)C)CCC(C)C)cn3c2C#CCN2CCCC2)cc1F [Example 23] | -9 | – | 6.00 to 7.00 |
| COc1cc(-c2nc3ccc(C(=O)N(CCC(C)C)CCC(C)C)cn3c2C#CCN2CCCC2)ccc1F [Example 24] | -2 | – | 6.00 to 7.00 |
| COc1cc(F)cc(-c2nc3ccc(C(=O)N(CCC(C)C)CCC(C)C)cn3c2C#CCN2CCCC2)c1 [Example 25] | -2 | – | < 6.00 |
| CC(C)CCN(CCC(C)C)C(=O)c1ccc2nc(-c3ccc(C#N)c(F)c3)c(C#CCN3CCCC3)n2c1 [Example 26] | -4 | – | 6.00 to 7.00 |
| CC(C)CCN(CCC(C)C)C(=O)c1ccc2nc(-c3cc(F)cc(F)c3)c(C#CCN3CCCC3)n2c1 [Example 27] | -3 | – | < 6.00 |
| COc1ccc(Nc2nc3ccc(C(=O)N(CCC(C)C)CCC(C)C)cn3c2C#CCN2CCCC2)cc1F [Example 28] | -12 | – | > 7.00 |
| CC(C)CCN(CCC(C)C)C(=O)c1ccc2nc(-c3cnc4c(c3)OCCN4C)c(C#CCN3CCCC3)n2c1 [Example 29] | -5 | – | > 7.00 |
| Cc1n[nH]cc1-c1nc2ccc(C(=O)N(CCC(C)C)CCC(C)C)cn2c1C#CCN1CCCC1 [Example 30] | 4 | – | 6.00 to 7.00 |
| Cc1cc(-c2nc3ccc(C(=O)N(CCC(C)C)CCC(C)C)cn3c2C#CCN2CCCC2)n(C)n1 [Example 31] | 3 | – | 6.00 to 7.00 |
| COc1cccc(-c2nc3ccc(C(=O)N(CCC(C)C)CCC(C)C)cn3c2C#CCN2CCCC2)n1 [Example 32] | -4 | – | 6.00 to 7.00 |
| CC(C)CCN(CCC(C)C)C(=O)c1ccc2nc(-c3ccc(=O)n(C)c3)c(C#CCN3CCCC3)n2c1 [Example 33] | – | – | > 7.00 |
| COc1ncc(-c2nc3ccc(C(=O)N(CCC(C)C)CCC(C)C)cn3c2C#CCN2CCCC2)cn1 [Example 34] | – | – | > 7.00 |
| CC(C)CCN(CCC(C)C)C(=O)c1ccc2nc(-c3ccc4nccnc4c3)c(C#CCN3CCCC3)n2c1 [Example 35] | – | – | > 7.00 |
| CC(C)CCN(CCC(C)C)C(=O)c1ccc2nc(-c3c[nH]nc3C(F)(F)F)c(C#CCN3CCCC3)n2c1 [Example 36] | – | – | 6.00 to 7.00 |
